From patent US9975907B2, “Pyrimidinones as PI3K inhibitors” (Incyte Corporation, priority 2009, dated 2018)
Structures can show the parent of a compound that is named as a salt.

Assays:
[1] = system: Pfeiffer cell line (diffuse large B cell lymphoma); assay: Pfeiffer Cell Proliferation Assay; assay type: cell-based; settings: 3-4 days, [3H]-thymidine incorporation
Method: Pfeiffer cell line (diffuse large B cell lymphoma) was purchased from ATCC (Manassas, Va.) and maintained in the culture medium recommended (RPMI and 10% FBS). To measure the anti-proliferation activity of the PI3Kδ submittals, the Pfeiffer cells were plated with the culture medium (2×10^3 cells/well/per 200 μl) into 96-well ultra-low binding plates (Corning, Corning, N.Y.), in the presence or absence of a concentration range of test compounds. After 3-4 days, [^3H]-thymidine (1 μCi/well) (PerkinElmer, Boston, Mass.) in PBS was then added to the cell culture for an additional 12 hrs before the incorporated radioactivity was separated by filtration with water through GF/B filters (Packard Bioscience, Meriden, Conn.) and measured by liquid scintillation counting with a TopCount (Packard Bioscience). See Table 3 for data related to compounds of the invention.

PI3Kγ = PI3Kγ (Homo sapiens (Human), UniProt P48736); assay: PI3K Enzyme Assay A2 ([γ-33P]ATP filter plate), PI3Kγ; assay type: biochemical; settings: Assay A2, 1000 μM ATP
PI3Kγ, sequence (P48736 whole entry, species assumed, canonical isoform): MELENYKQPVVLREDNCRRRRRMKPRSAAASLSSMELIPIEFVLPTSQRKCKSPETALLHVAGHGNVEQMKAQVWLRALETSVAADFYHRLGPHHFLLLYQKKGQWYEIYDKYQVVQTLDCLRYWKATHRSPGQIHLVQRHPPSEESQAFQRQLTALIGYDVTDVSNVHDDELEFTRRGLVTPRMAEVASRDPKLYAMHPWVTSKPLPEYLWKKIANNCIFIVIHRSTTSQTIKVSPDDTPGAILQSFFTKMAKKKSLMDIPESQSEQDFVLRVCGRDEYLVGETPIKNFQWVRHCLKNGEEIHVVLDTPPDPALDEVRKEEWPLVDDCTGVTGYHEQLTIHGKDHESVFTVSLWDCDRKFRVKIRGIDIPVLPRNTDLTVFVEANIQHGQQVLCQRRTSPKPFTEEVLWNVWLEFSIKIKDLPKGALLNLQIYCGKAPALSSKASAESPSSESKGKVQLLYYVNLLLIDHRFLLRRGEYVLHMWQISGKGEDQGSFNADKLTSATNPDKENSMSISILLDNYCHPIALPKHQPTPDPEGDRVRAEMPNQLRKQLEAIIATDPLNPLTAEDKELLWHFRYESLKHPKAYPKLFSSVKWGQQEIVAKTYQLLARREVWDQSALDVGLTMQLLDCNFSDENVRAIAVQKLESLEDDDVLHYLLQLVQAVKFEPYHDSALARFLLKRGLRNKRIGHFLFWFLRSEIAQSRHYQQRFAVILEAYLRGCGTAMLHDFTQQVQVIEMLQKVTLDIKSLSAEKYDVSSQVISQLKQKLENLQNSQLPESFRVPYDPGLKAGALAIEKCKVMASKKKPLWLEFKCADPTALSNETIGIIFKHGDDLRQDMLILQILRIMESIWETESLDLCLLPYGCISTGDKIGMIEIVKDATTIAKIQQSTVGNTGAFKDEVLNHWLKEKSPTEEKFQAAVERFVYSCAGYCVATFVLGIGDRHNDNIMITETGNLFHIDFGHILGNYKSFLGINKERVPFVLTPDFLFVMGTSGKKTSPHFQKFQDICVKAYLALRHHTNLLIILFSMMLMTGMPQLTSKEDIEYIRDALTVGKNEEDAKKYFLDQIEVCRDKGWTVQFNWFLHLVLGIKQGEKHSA
Method: Materials: Lipid kinase substrate, phosphoinositol-4,5-bisphosphate (PIP2), was purchased from Echelon Biosciences (Salt Lake City, Utah). PI3K isoforms α, β, δ and γ were purchased from Millipore (Bedford, Mass.). ATP, MgCh, DTT, EDTA, MOPS and CHAPS were purchased from Sigma-Aldrich (St. Louis, Mo.).
(§1) The kinase reaction was conducted in clear-bottom 96-well plate from Thermo Fisher Scientific in a final volume of 24 μL. Inhibitors were first diluted serially in DMSO and added to the plate wells before the addition of other reaction components. The final concentration of DMSO in the assay was 0.5%. The PI3K assays were carried out at room temperature in 20 mM MOPS, pH 6.7, 10 mM MgCl2, 5 mM DTT and CHAPS 0.03%. The reaction mixture was prepared containing 50 μM PIP2, kinase and varying concentration of inhibitors. Reactions were initiated by the addition of ATP containing 2.2 μCi [γ-^33P]ATP to a final concentration of 1000 μM. The final concentration of PI3K isoforms α, β, δ and γ in the assay were 1.3, 9.4, 2.9 and 10.8 nM respectively. Reactions were incubated for 180 min and terminated by the addition of 100 μL of 1 M potassium phosphate pH 8.0, 30 mM EDTA quench buffer. A 100 μL aliquot of the reaction solution was then transferred to 96-well Millipore MultiScreen IP 0.45 μm PVDF filter plate (The filter plate was prewetted with 200 μL 100% ethanol, distilled water, and 1 M potassium phosphate pH 8.0, respectively). The filter plate was aspirated on a Millipore Manifold under vacuum and washed with 18×200 μL wash buffer containing 1 M potassium phosphate pH 8.0 and 1 mM ATP. After drying by aspiration and blotting, the plate was air dried in an incubator at 37° C. overnight. Packard TopCount adapter (Millipore) was then attached to the plate followed with addition of 120 μL Microscint 20 scintillation cocktail (Perkin Elmer) in each well. After the plate sealing, the radioactivity of the product was determined by scintillation counting on Topcount (Perkin-Elmer). IC50 determination was performed by fitting the curve of percent control activity versus the log of the inhibitor concentration using the GraphPad Prism 3.0 software. […] See Table 1 for data related to compounds of the invention.

PI3Kδ (p110δ/p85α) = PI3Kδ (p110δ/p85α) (Homo sapiens (Human), UniProt O00329); assay: PI3Kδ Scintillation Proximity Assay (Assay A3); assay type: biochemical; settings: column b, Assay A3 (SPA), 20 μM ATP
PI3Kδ (p110δ/p85α), sequence (O00329 whole entry, species assumed): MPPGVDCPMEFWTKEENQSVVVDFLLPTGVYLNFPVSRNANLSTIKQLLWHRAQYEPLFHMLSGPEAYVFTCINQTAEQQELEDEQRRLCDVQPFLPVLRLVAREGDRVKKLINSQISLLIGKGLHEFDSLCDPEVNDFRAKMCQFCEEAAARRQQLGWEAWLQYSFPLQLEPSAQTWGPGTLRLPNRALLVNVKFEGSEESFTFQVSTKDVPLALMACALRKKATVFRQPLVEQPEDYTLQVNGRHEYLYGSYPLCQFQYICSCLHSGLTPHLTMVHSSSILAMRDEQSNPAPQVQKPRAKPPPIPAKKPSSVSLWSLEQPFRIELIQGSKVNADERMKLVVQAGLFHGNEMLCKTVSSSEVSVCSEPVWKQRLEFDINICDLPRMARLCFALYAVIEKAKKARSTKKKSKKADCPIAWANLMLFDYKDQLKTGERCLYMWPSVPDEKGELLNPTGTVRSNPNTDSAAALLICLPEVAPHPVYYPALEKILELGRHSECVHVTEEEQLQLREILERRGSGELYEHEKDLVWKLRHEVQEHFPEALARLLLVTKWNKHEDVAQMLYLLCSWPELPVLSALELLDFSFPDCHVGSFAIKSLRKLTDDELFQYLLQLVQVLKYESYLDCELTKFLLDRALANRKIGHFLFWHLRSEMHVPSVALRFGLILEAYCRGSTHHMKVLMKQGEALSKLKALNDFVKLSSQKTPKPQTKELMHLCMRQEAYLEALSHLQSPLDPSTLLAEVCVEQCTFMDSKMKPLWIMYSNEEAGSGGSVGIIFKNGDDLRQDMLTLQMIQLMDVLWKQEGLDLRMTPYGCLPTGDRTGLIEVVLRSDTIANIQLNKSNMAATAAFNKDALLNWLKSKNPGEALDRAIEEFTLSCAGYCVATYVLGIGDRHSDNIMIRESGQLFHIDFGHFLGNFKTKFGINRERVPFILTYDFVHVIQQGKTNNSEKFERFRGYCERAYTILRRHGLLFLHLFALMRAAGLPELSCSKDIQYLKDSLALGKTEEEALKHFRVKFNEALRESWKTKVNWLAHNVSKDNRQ
PI3Kδ (p110δ/p85α), sequence (P27986 whole entry partner, species assumed): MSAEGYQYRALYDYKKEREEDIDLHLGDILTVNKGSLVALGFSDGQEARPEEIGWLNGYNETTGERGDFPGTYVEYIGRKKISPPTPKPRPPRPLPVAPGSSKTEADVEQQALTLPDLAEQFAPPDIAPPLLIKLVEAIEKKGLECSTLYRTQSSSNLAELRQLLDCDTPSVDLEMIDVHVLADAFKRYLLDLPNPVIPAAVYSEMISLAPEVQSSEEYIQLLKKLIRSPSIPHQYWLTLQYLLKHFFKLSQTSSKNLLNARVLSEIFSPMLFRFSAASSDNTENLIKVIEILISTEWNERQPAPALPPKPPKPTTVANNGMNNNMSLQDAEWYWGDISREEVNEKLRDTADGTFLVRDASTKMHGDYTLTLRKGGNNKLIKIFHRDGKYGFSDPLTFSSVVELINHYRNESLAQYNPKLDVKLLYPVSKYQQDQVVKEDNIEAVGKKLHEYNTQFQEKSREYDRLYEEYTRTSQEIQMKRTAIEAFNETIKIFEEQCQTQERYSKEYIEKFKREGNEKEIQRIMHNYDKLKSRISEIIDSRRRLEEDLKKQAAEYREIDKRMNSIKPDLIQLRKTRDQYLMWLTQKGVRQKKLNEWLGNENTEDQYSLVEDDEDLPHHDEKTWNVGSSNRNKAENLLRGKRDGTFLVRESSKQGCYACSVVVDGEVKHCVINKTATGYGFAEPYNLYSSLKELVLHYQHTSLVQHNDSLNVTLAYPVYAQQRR
Procedure, shortened: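 Human p110δ/p85α (4 nM) with 20 μM diC8-PIP2 and 20 μM ATP plus [γ-33P]ATP, 210 min at room temperature in 20 mM MOPS pH 6.7, 10 mM MgCl2, 5 mM DTT, 0.03% CHAPS, 0.5% DMSO. Product captured on WGA SPA beads in EDTA quench; IC50 from percent-control versus log concentration fit.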

PI3Kβ = PI3Kβ (Homo sapiens (Human), UniProt P42338); assay: PI3K Enzyme Assay A2 ([γ-33P]ATP filter plate), PI3Kβ; assay type: biochemical; settings: Assay A2, 1000 μM ATP
PI3Kβ, sequence (P42338 whole entry, species assumed, canonical isoform): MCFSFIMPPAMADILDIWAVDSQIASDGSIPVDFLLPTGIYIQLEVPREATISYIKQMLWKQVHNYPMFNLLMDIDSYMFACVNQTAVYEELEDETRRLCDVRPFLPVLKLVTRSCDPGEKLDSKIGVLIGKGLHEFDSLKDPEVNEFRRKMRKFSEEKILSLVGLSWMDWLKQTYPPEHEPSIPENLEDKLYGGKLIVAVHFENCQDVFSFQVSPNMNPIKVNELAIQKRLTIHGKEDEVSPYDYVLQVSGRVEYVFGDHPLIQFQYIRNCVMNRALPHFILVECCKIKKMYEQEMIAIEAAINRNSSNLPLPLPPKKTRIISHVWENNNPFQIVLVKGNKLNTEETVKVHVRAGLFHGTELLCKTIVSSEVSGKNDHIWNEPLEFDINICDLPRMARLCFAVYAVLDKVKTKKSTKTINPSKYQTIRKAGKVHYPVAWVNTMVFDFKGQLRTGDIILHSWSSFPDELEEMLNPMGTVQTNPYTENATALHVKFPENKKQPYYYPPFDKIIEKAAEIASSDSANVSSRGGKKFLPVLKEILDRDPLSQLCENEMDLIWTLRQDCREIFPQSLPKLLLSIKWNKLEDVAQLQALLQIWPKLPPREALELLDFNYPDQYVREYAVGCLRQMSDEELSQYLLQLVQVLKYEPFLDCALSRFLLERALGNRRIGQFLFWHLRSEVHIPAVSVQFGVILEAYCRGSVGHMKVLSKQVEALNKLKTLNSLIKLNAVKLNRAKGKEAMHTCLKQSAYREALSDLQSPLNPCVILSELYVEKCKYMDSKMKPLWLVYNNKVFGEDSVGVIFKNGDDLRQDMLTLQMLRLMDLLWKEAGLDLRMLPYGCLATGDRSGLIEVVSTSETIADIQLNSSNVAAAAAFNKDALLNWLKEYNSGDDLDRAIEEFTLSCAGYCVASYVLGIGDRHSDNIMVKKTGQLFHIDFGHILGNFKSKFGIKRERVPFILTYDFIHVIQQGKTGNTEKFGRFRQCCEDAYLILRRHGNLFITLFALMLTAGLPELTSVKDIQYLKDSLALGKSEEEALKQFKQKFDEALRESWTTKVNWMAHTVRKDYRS
PI3Kβ, sequence (P27986 whole entry partner, species assumed, canonical isoform): as the sequence (P27986 whole entry partner, species assumed) above
Method: as §1, with “Materials: Lipid kinase substrate, phosphoinositol-4,5-bisphosphate (PIP2), was purchased from Echelon Biosciences (Salt Lake City, Utah). PI3K isoforms α, β, δ and γ were purchased from Millipore (Bedford, Mass.). ATP, MgCh, DTT, EDTA, MOPS and CHAPS were purchased from Sigma-Aldrich (St. Louis, Mo.). The kinase” for “The kinase”, “1000 μM. […] Reactions were” for “1000 μM. The final concentration of PI3K isoforms α, β, δ and γ in the assay were 1.3, 9.4, 2.9 and 10.8 nM respectively. Reactions were”

Row | IC50 (PI3Kδ (p110δ/p85α)) [nM] | IC50 ([1]; trifluoroacetic acid salt) [nM] | SMILES | IC50 (PI3Kγ) [nM] | other results
1 | < 50 | – | Cc1csc2nc(C(C)Nc3nc(N)nc4[nH]cnc34)c(-c3cc(F)cc(F)c3)c(=O)n12 (single isomer, unassigned) [Example 23, 7-{1-[(2-amino-9H-purin-6-yl)amino]ethyl}-6-(3,5-difluorophenyl)-3-methyl-5H-[1,3]thiazolo[3,2-a]pyrimidin-5-one] | > 500 | IC50 ([1]; Homo sapiens, Pfeiffer): < 50 nM
2 | > 500 | 500 to 1000 | Cc1cccc2nc(C(C)Nc3ncnc4[nH]cnc34)c(-c3cccc(F)c3)c(=O)n12 (single isomer, unassigned) [Example 72, 3-(3-Fluorophenyl)-6-methyl-2-[1-(9H-purin-6-ylamino)ethyl]-4H-pyrido[1,2-a]pyrimidin-4-one trifluoroacetic acid salt] | – | –
3 | < 50 | < 50 | Cc1cccc2nc(C(C)Nc3ncnc4[nH]cnc34)c(-c3cccc(F)c3)c(=O)n12 (single isomer, unassigned) [Example 71, 3-(3-Fluorophenyl)-6-methyl-2-[1-(9H-purin-6-ylamino)ethyl]-4H-pyrido[1,2-a]pyrimidin-4-one trifluoroacetic acid salt] | > 500 | –
4 | > 500 | 500 to 1000 | Cc1cccc2nc(C(C)Nc3nc(N)nc4[nH]cnc34)c(-c3cccc(F)c3)c(=O)n12 (single isomer, unassigned) [Example 75, 2-{1-[(2-Amino-9H-purin-6-yl)amino]ethyl}-3-(3-fluorophenyl)-6-methyl-4H-pyrido[1,2-a]pyrimidin-4-one trifluoroacetic acid salt] | – | –
5 | – | – | Cc1csc2nc([C@H](C)Nc3ncnc4[nH]cnc34)c(-c3cccc(F)c3)c(=O)n12 [Example 15, (S)-7-(1-(9H-purin-6-ylamino)ethyl)-6-(3-fluorophenyl)-3-methyl-5H-thiazolo[3,2-a]pyrimidin-5-one] | > 500 | IC50 (PI3Kβ): > 500 nM
6 | < 50 | < 50 | Cc1cccc2nc(C(C)Nc3nc(N)nc4[nH]cnc34)c(-c3cccc(F)c3)c(=O)n12 (single isomer, unassigned) [Example 74, 2-{1-[(2-Amino-9H-purin-6-yl)amino]ethyl}-3-(3-fluorophenyl)-6-methyl-4H-pyrido[1,2-a]pyrimidin-4-one trifluoroacetic acid salt] | – | –
7 | < 50 | – | Cc1cccc2nc(C(C)Nc3nc(N)nc4[nH]cnc34)c(-c3cccc(F)c3)c(=O)n12 (stereo not shown) [Example 73, 2-{1-[(2-Amino-9H-purin-6-yl)amino]ethyl}-3-(3-fluorophenyl)-6-methyl-4H-pyrido[1,2-a]pyrimidin-4-one trifluoroacetic acid salt] | – | IC50 ([1]; Homo sapiens, Pfeiffer): < 50 nM
8 | – | – | Cc1csc2nc(C(C)Nc3ncnc4[nH]cnc34)c(-c3cccc(F)c3)c(=O)n12 (stereo not shown) [Example 10, 6-(3-fluorophenyl)-3-methyl-7-[1-(9H-purin-6-ylamino)ethyl]-5H-[1,3]thiazolo[3,2-a]pyrimidin-5-one] | > 500 | IC50 (PI3Kβ): > 500 nM
9 | – | – | Cc1csc2nc([C@H](C)Nc3nc(N)nc4[nH]cnc34)c(-c3ccccc3Cl)c(=O)n12 (single isomer, unassigned) [39 Second peak] | – | IC50 [1]: < 50 nM
10 | 50 to 100 | – | Cc1cccc2nc(C(C)Nc3ncnc4[nH]cnc34)c(-c3cccc(F)c3)c(=O)n12 (stereo not shown) [Example 70, 3-(3-Fluorophenyl)-6-methyl-2-[1-(9H-purin-6-ylamino)ethyl]-4H-pyrido[1,2-a]pyrimidin-4-one trifluoroacetic acid salt] | – | IC50 ([1]; Homo sapiens, Pfeiffer): < 50 nM
11 | – | – | Cc1csc2nc([C@H](C)Nc3ncnc4[nH]cnc34)c(-c3ccccc3Cl)c(=O)n12 (single isomer, unassigned) [43 Second peak] | – | IC50 [1]: < 50 nM
